Test results reported in ChEMBL document CHEMBL1201862, “PubChem BioAssay data set” (2004).
Activity calls are given as the source filed them.

Columns and labels:
Genome polyprotein = Genome polyprotein (dengue virus type 2, UniProt P29990); test: flavivirus cap methylation enzyme inhibition – biochemical, confirmation dose response, primary screen (AID 588689); format: functional
Cytochrome P450 2D6 = Cytochrome P450 2D6 (Homo sapiens, UniProt P10635);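 also: CYP2D6 member of a cytochrome P450 panel assay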
Chain of Cytochrome P450 2D6 (P10635 whole entry): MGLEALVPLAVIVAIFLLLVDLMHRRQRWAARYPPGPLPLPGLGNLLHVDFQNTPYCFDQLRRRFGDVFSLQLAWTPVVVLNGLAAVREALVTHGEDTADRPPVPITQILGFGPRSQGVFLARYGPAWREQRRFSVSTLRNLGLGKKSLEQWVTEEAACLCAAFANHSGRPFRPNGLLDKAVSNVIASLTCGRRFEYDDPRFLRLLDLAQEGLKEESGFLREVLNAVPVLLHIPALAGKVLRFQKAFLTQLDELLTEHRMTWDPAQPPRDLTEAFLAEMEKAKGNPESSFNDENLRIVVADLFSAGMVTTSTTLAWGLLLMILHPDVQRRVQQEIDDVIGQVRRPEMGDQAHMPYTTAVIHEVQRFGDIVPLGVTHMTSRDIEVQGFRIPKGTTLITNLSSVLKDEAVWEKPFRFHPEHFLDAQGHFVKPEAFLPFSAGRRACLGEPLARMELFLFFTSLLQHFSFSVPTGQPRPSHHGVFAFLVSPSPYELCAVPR

Cytochrome P450 3A4 = Cytochrome P450 3A4 (Homo sapiens, UniProt P08684);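 also: CYP3A4 tested as one member of a cytochrome P450 panel screen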
Chain of Cytochrome P450 3A4 (P08684 whole entry): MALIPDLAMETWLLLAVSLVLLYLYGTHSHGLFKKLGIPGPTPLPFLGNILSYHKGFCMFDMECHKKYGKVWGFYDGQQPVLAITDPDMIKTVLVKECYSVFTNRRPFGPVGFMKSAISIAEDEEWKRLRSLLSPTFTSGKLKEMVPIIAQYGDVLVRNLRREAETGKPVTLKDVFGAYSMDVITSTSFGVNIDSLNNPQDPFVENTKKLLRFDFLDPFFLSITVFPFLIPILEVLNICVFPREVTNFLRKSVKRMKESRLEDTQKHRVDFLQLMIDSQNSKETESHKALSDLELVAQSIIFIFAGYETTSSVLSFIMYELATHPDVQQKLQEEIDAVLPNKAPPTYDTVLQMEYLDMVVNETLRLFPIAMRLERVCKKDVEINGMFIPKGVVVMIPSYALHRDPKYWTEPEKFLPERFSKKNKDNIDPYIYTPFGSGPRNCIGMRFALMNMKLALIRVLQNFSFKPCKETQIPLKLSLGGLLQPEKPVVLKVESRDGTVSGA

Cytochrome P450 2C9 = Cytochrome P450 2C9 (Homo sapiens, UniProt P11712)
Chain of Cytochrome P450 2C9 (P11712 whole entry): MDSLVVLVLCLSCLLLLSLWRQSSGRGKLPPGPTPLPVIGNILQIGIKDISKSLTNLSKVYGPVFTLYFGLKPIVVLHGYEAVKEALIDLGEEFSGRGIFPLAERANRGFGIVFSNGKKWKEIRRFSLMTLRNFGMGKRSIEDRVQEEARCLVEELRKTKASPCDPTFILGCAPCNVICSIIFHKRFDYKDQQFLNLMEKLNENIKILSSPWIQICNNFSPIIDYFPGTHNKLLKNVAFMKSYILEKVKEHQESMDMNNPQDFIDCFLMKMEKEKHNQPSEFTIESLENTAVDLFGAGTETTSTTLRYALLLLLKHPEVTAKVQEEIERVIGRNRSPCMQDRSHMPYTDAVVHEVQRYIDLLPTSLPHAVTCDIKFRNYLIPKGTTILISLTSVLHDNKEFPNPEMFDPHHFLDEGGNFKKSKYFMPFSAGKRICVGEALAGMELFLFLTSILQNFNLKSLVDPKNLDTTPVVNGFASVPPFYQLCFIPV

Vero = test: cells; format: functional; conditions: Chlorocebus sabaeus
[1] = viability of uninfected HEp-2 cells – cell-based, HTS, cytotoxicity control for RSV inhibitor project, dose response (AID 2410); format: functional; conditions: human respiratory syncytial virus
[2] = NIH3T3 cell viability loss – ATP luminescence, mouse fibroblasts, counter-screen, dose response (AID 2010); format: functional, cell-based;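 also: cells exposed to compound for about 90 hours before reading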
[3] = Trypanosoma cruzi growth suppression in host cells – NIH3T3 host cells, beta-gal luminescence, confirmation (AID 2044); format: functional, cell-based;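 also: intracellular parasites grown in NIH/3T3 mouse fibroblasts as host cells; luminescent beta-galactosidase reporter signal from transgenic T. cruzi replicating inside host cells; inhibitors lower the luminescence signal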
Cytochrome P450 1A2 = molecular target: T1, Cytochrome P450 1A2 (Homo sapiens, UniProt P05177);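 also: PubChem cytochrome P450 panel assay, CYP1A2 panel member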
T1 sequence (P05177 whole entry): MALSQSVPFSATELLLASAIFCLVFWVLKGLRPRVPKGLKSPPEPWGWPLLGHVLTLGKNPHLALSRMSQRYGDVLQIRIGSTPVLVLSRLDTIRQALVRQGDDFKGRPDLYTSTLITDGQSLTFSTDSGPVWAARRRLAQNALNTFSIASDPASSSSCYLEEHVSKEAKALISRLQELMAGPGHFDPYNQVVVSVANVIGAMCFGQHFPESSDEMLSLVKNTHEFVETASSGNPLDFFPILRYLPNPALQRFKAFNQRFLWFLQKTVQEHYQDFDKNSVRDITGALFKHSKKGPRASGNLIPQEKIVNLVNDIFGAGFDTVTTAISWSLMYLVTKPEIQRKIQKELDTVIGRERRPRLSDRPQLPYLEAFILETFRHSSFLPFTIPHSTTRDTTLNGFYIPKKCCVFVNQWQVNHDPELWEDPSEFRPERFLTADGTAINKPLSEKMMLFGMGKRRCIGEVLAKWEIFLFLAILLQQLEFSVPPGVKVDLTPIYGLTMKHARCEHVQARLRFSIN

[4] = molecular target: T2, Replicative DNA helicase DnaB (Mycobacterium tuberculosis, UniProt P9WMR3); test: DnaB intein splicing inhibitors, dose response, biochemical, cell-free fluorescence (AID 449749); format: functional
T2 sequence (P9WMR3 whole entry): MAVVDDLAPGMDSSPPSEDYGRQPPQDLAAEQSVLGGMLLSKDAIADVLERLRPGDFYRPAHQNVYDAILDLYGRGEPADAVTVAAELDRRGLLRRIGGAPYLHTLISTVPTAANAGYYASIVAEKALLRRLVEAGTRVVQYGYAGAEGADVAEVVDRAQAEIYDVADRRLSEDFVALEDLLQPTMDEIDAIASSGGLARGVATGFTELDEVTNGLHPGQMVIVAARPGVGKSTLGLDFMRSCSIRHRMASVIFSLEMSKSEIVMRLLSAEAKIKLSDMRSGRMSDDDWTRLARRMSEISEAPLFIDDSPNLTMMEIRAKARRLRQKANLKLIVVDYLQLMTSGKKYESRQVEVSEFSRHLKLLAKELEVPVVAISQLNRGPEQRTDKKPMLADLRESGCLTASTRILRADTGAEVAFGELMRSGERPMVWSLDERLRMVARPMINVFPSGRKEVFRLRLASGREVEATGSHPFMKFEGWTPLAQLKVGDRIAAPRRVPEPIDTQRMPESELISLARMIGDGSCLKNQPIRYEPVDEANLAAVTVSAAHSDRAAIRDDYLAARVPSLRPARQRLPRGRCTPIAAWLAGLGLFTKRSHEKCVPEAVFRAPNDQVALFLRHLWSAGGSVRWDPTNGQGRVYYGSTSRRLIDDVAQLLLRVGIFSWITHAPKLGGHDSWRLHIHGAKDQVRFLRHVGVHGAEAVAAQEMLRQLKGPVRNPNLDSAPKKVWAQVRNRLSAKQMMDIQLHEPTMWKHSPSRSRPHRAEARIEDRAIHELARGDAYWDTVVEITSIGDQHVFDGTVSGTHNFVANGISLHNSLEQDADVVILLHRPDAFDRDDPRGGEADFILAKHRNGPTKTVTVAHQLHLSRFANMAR

Protein RecA = molecular target: T3, Protein RecA (Mycobacterium tuberculosis, UniProt P9WHJ3); test: Fluorescence Cell-Free Homogeneous Dose Retest to Identify Inhibitors of RecA-Intein Splicing Activity. [Related pubchem assays (depositor defined):AID2097, AID2223, AID489010, AID492950]; format: functional
T3 sequence (P9WHJ3 whole entry): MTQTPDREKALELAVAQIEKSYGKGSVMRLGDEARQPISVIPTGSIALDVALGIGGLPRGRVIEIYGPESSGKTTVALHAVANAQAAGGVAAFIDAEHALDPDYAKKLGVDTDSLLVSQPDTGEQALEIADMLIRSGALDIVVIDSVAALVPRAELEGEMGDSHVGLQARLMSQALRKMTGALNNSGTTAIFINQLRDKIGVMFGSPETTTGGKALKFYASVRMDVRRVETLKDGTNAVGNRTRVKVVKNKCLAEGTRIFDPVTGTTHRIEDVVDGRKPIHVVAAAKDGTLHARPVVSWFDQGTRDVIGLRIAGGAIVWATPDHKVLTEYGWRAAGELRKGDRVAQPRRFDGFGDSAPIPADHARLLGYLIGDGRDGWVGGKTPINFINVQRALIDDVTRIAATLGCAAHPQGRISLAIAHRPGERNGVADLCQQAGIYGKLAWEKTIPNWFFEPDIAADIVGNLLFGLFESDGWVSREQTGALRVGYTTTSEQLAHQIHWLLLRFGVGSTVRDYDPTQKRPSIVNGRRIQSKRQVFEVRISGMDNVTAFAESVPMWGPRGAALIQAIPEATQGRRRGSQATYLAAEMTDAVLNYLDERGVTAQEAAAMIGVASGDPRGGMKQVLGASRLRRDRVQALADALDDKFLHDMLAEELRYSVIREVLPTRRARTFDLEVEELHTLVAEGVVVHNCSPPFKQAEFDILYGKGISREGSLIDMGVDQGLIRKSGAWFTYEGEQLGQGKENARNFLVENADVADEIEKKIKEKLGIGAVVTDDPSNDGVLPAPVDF

[5] = molecular target: T4, Rac GTPase-activating protein 1 (Homo sapiens, UniProt Q9H0H5); test: blockers of MgcRacGAP-driven Rac1 GTP hydrolysis – biochemical, ADP Hunter fluorescence, primary and confirmatory, confirmation (AID 624330); format: functional
T4 sequence (Q9H0H5 whole entry): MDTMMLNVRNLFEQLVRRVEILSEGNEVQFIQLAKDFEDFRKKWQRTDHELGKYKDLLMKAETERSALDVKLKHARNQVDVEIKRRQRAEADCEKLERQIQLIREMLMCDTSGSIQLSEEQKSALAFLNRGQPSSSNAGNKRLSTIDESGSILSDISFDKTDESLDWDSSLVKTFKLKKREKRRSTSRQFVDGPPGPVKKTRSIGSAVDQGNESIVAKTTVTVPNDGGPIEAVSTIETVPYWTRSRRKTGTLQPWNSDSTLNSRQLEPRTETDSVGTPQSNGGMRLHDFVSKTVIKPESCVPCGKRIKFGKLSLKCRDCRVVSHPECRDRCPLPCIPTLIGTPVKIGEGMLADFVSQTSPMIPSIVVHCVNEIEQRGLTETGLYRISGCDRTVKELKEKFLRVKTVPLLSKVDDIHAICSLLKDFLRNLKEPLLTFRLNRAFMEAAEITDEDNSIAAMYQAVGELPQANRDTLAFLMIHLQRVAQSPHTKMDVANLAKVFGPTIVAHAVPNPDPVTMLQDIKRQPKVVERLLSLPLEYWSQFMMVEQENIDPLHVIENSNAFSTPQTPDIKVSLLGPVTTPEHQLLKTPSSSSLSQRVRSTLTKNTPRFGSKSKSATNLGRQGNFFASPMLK

Chain of Genome polyprotein (P29990 2492-3391 limits assumed): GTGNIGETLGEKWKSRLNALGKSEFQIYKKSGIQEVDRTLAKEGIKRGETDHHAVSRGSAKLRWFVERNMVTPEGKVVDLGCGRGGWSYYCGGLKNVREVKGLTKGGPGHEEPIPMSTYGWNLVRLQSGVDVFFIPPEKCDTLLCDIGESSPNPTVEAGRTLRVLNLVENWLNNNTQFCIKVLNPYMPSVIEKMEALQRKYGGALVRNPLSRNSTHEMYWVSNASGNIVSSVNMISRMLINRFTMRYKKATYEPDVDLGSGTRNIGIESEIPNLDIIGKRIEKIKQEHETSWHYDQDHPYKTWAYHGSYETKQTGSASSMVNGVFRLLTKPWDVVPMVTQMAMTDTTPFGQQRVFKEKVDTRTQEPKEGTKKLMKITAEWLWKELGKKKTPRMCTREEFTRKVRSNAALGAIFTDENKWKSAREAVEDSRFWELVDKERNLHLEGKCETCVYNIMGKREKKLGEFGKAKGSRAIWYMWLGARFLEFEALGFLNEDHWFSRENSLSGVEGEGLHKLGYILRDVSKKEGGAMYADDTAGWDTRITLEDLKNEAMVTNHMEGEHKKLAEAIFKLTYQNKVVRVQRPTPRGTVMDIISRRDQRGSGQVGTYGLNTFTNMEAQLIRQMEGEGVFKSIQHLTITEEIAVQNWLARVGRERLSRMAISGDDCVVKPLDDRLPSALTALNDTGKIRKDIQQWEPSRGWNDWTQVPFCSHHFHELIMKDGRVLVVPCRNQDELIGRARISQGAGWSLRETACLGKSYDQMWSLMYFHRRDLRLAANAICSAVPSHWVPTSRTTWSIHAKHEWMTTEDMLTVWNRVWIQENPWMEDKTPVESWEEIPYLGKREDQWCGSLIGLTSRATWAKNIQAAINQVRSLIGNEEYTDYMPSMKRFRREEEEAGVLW

Question: Which IC50 (Genome polyprotein) does the source give for CC(=C\c1ccccc1)/C=C1/SC(=S)N(C(C(=O)O)C(C)C)C1=O (centres undefined) here?
Answer: The IC50 was 34.1 µM (active).

Question: With CCCCn1nnnc1SCC(=O)c1cc(Cl)ccc1OC as the compound, how does the AC50 (Cytochrome P450 2D6) read?
Answer: The AC50 was 22.4 µM (inconclusive).

Question: What about the AC50 (Cytochrome P450 3A4) of the same compound?
Answer: Its AC50 is 14.1 µM (inconclusive).

Question: What about the AC50 (Cytochrome P450 2C9) of the same compound?
Answer: The AC50 was “inconclusive”.

Question: Which CC50 (Vero) does the source give for CNC[C@H](CC1CCCCC1)NC[C@H](NCCC1CCCC1)[C@H](C)O here?
Answer: Its CC50 is > 25 µM (active).

Question: For CC(=O)Nc1ccc(S(=O)(=O)Nc2cccc(-c3nc4cc(C)ccc4o3)c2)cc1, which CC50 [1] is on record?
Answer: Its CC50 is 9.33 µM (active).

Question: What about the CC50 (Vero) of the same compound?
Answer: The CC50 was > 25 µM (active).

Question: For CC1=C(C(=O)Nc2ccccc2F)C(c2ccsc2)C2=C(O)CC(c3ccccc3)CC2=N1 (centres undefined), which AC50 (Cytochrome P450 2C9) is on record?
Answer: The AC50 was “inconclusive”.

Question: And the EC50 [2]?
Answer: The EC50 was 8.96 µM (active).

Question: And the EC50 [3]?
Answer: Its EC50 is 3.32 µM (active).

Question: What about the AC50 (Cytochrome P450 1A2) of the same compound?
Answer: The AC50 was 11.2 µM (inconclusive).

Question: Which AC50 (Cytochrome P450 2D6) does the source give for CCCSc1nc(C)cc(C)c1S(=O)(=O)c1ccccc1C here?
Answer: Its AC50 is 39.8 µM (inconclusive).

Question: What about the AC50 (Cytochrome P450 2C9) of the same compound?
Answer: The AC50 was “inconclusive”.

Question: And the AC50 (Cytochrome P450 1A2)?
Answer: Its AC50 is 11.2 µM (inconclusive).

Question: With O=C1NC(=O)C(=Cc2ccccc2Oc2ccc(F)cc2)C(=O)N1 as the compound, how does the IC50 (Genome polyprotein) read?
Answer: Its IC50 is 37.5 µM (active).

Question: For Cc1ccc(N2C(=O)NC(=O)/C(=C/c3ccc(OC(=O)c4cccs4)cc3)C2=O)cc1, which AC50 [4] is on record?
Answer: Its AC50 is 0.64 µM (active).

Question: And the IC50 (Genome polyprotein)?
Answer: The IC50 was 55.4 µM (active).

Question: And the EC50 (Protein RecA)?
Answer: The EC50 was 0.772 µM (active).

Question: With CCOc1cc2c(cc1O)C(=NO)CC1C2CCC2(C)C(O)CCC12 (centres undefined) as the compound, how does the CC50 (Vero) read?
Answer: Its CC50 is 4.99 µM (active).

Question: Which AC50 (Cytochrome P450 2D6) does the source give for O=C(CS(=O)(=O)c1cccc(Cl)c1)Nc1ccccc1Cl here?
Answer: The AC50 was 17.8 µM (inconclusive).

Question: What about the AC50 (Cytochrome P450 2C9) of the same compound?
Answer: Its AC50 is “inconclusive”.

Question: What about the AC50 (Cytochrome P450 1A2) of the same compound?
Answer: The AC50 was 22.4 µM (inconclusive).

Question: For O=C1NN(c2ccccc2)C(=O)C1=Cc1ccccc1O, which IC50 (Genome polyprotein) is on record?
Answer: Its IC50 is 34.6 µM (active).

Question: What about the IC50 [5] of the same compound?
Answer: Its IC50 is 81.3 µM (active).
